We go through 1 compound from patent US20100256233A1, “SYSTEMS, METHODS AND COMPOSITIONS FOR REDUCTION OF INJURY FROM RADIATION EXPOSURE” (priority 2007, published 2010).

The structures appear in SMILES notation.

In assay [1] the test system is acetylation of histone H3. Nature of the assay: Western blot of acetylated histones in bone marrow after HDACi administration (HDACi activity). The assay is classed as in vivo, mouse. To be noted: 10 h after first dose and 5 h after second dose, s.c., TSA 0.5 + 0.5 mg/kg, VPA 600 + 300 mg/kg. On the procedure:
[…] or spleens were harvested at 10 h.
TSA is not selective and is expected to increase acetylation of histones non-specifically. FIG. 1 is a graph showing the acetylation of histone H3 relative to a beta-actin control in test samples. […] Bars indicate individual mice.

The next assay relates to BALB/c mice. Nature of the assay: Lethality / survival after total-body irradiation (TBI). Type of assay: in vivo. On the procedure: All studies were performed with prior approval and in accordance with institutional and national standards of animal care. The studies were approved by an Institutional Animal Care and Use Committee (“IACUC”) and were performed in an accredited AAALAC facility. Male BALB/c mice (Charles River Laboratories) 8 to 10 weeks old were allowed to acclimate for 1 week prior to the start of the study. Mice were maintained in environment-controlled (temperature and lighting) animal facilities, provided food and water ad libitum, and randomly assigned to experimental groups.
TBI was delivered using a 185 TBq (5000 Ci) ^137Cs source (Mark I, J. L. Shepherd and Associates, San Fernando, Calif.). Doses ranged from sublethal exposures of 5.5 Gy to lethal exposures of 6.5 Gy and a supralethal exposure of 7.0 Gy. The dose rate was approximately 1 Gy per minute.
Survival was measured in mice after TBI with and without HDACi. Groups of mice were exposed to 6.5 or 7.0 Gy alone or in combination with HDACi, as described above. Survival was defined as the time from irradiation to the time of euthanasia, which occurred when animals had lost 20% or more of their body weight.

`CC(/C=C/C(=O)NO)=C\[C@@H](C)C(=O)c1ccc(N(C)C)cc1` [TSA, trichostatin-A]: the “increase in acetylated form of histone H3 relative to the beta-actin control” value in assay [1] is “three to four-fold increase”. Besides, in the assay on BALB/c mice (7 Gy TBI, TSA 0.5 mg/kg 24 h before TBI (FIG. 5)), the survival entry was “increased survival”. Besides, the “lethality (time for mice to lose 20% or more of their weight)” value in the assay on BALB/c mice (after TBI) is reported as “reduce lethality in a dose-dependent manner”.
